{
  "source": "patent US4399132A",
  "about": "“7-Beta-[alpha-syn-methoxyimino-alpha-(2-aminothiazol-4-yl)-aceta mido]-3-[(1,2,3-thiadiazol-5-ylthio)methyl]-3-cephem-4-carboxylic acid and C1 -C6 alkyl derivatives thereof” (American Cyanamid Company, priority 1981, dated 1983)",
  "key": {"Enterobacter aerogenes": {"tested_on": "Enterobacter aerogenes", "experiment": "Mueller-Hinton agar dilution method (MIC)", "type": "cell-based", "details": "Klebsiella aerogenes; strain STFD-79-14; Table I; read-out: Minimal Inhibitory Concentration"}, "Staphylococcus aureus [1]": {"tested_on": "Staphylococcus aureus", "experiment": "Mueller-Hinton agar dilution method (MIC)", "type": "cell-based", "details": "read-out: Minimal Inhibitory Concentration"}, "Escherichia coli [2]": {"tested_on": "Escherichia coli", "experiment": "Mueller-Hinton agar dilution method (MIC)", "type": "cell-based", "details": "read-out: Minimal Inhibitory Concentration"}, "Klebsiella pneumoniae": {"tested_on": "Klebsiella pneumoniae", "experiment": "Mueller-Hinton agar dilution method (MIC)", "type": "cell-based", "details": "Table I"}, "Serratia marcescens": {"tested_on": "Serratia marcescens", "experiment": "Mueller-Hinton agar dilution method (MIC)", "type": "cell-based", "details": "read-out: Minimal Inhibitory Concentration"}, "Enterococcus sp.": {"tested_on": "Enterococcus sp.", "experiment": "Mueller-Hinton agar dilution method (MIC)", "type": "cell-based", "details": "Table I"}, "Proteus morganii": {"tested_on": "Proteus morganii", "experiment": "Mueller-Hinton agar dilution method (MIC)", "type": "cell-based", "details": "Morganella morganii, Table I, read-out: Minimal Inhibitory Concentration"}, "Enterobacter cloacae": {"tested_on": "Enterobacter cloacae", "experiment": "Mueller-Hinton agar dilution method (MIC)", "type": "cell-based", "details": "read-out: Minimal Inhibitory Concentration"}, "Klebsiella oxytoca": {"tested_on": "Klebsiella oxytoca", "experiment": "Mueller-Hinton agar dilution method (MIC)", "type": "cell-based", "details": "strain K-81-6, Table I, read-out: Minimal Inhibitory Concentration"}, "Proteus rettgeri": {"tested_on": "Proteus rettgeri", "experiment": "Mueller-Hinton agar dilution method (MIC)", "type": "cell-based", "details": "Providencia rettgeri; strain N-76-1; Table I; read-out: Minimal Inhibitory Concentration"}, "Salmonella (arizona)": {"tested_on": "Salmonella (arizona)", "experiment": "Mueller-Hinton agar dilution method (MIC)", "type": "cell-based", "details": "strain QHC-77-3, Table I, read-out: Minimal Inhibitory Concentration"}, "Providencia stuartti": {"tested_on": "Providencia stuartti", "experiment": "Mueller-Hinton agar dilution method (MIC)", "type": "cell-based", "details": "strain K-81-29, Table I, read-out: Minimal Inhibitory Concentration"}, "Salmonella sp.": {"tested_on": "Salmonella sp.", "experiment": "Mueller-Hinton agar dilution method (MIC)", "type": "cell-based", "details": "strain SSC-79-57, Table I, read-out: Minimal Inhibitory Concentration", "source_text": "The results appear in Tables I, II, and III."}, "Pseudomonas aeruginosa": {"tested_on": "Pseudomonas aeruginosa", "experiment": "Mueller-Hinton agar dilution method (MIC)", "type": "cell-based", "details": "read-out: Minimal Inhibitory Concentration"}, "Acinetobacter sp.": {"tested_on": "Acinetobacter sp.", "experiment": "Mueller-Hinton agar dilution method (MIC)", "type": "cell-based", "details": "read-out: Minimal Inhibitory Concentration"}, "Citrobacter sp.": {"tested_on": "Citrobacter sp.", "experiment": "Mueller-Hinton agar dilution method (MIC)", "type": "cell-based", "details": "strain K-81-27, Table I, read-out: Minimal Inhibitory Concentration"}, "Escherichia coli [3]": {"tested_on": "Escherichia coli", "experiment": "control of systemic lethal infections in mice", "type": "in vivo, mice (Charles River Laboratories CD-1 strain female)", "details": "sc, 168 h, strain 311, subcutaneous 30 min after i.p. infection, survival at 7 days, three tests pooled, 95% confidence limits (0.28-0.44), read-out: Median Effective Dose (ED50)", "procedure": "(§1) The test employed used Charles River Laboratories CD-1 strain female mice each weighing 20+2 grams. The mice were infected by intraperitoneal injection of sufficient bacteria (see Table 2), contained in either 0.5 ml. of 5% mucin (S. aureus strains) or broth (S. pyogenes or E. coli), to kill 95-100% of untreated mice within 48 hours.\n(§2) The mice were treated by subcutaneous injection 30 minutes after infection with the test drug at varying doses contained in 0.5 ml. of 0.2% aqueous agar. Survival ratios seven days after infection were recorded."}, "Staphylococcus aureus [4]": {"tested_on": "Staphylococcus aureus", "experiment": "control of systemic lethal infections in mice", "type": "in vivo, mice (Charles River Laboratories CD-1 strain female)", "details": "sc, 168 h, survival at 7 days, three tests pooled, read-out: Median Effective Dose (ED50)", "procedure": "as §1, §2"}, "Staphylococcus pyogenes": {"tested_on": "Staphylococcus pyogenes", "experiment": "control of systemic lethal infections in mice", "type": "in vivo, mice (Charles River Laboratories CD-1 strain female)", "details": "Staphylococcus aureus, sc, 168 h; strain C 203; subcutaneous 30 min after i.p. infection; survival at 7 days; three tests pooled; 95% confidence limits (0.08-0.13); read-out: Median Effective Dose (ED50)", "procedure": "as §1, §2"}},
  "note": "Where two headings read alike, the source gives them in different places.",
  "data": [
    {"smiles": "CO/N=C(\\C(=O)N[C@@H]1C(=O)N2C(C(=O)O)=C(CSc3cnns3)CS[C@H]12)c1csc(N)n1", "note": "[Compound Ia, 7 beta-[alpha-syn-methoxyimino-alpha-(2-aminothiazol-4-yl)acetamido]-3-[(1,2,3-thiadiazol-5-ylthio)methyl]-3-cephem-4-carboxylic acid]", "values": [
      {"measurement": "MIC", "setting": "Enterobacter aerogenes", "value": 0.03, "unit": "µg/mL"},
      {"measurement": "MIC", "setting": "Staphylococcus aureus [1]; beta-lactamase negative, strain SSC 79-3, Table II", "value": 0.12, "unit": "µg/mL"},
      {"measurement": "MIC", "setting": "Staphylococcus aureus [1]; beta-lactamase negative, strain SSC 79-5, Table II", "value": 0.5, "unit": "µg/mL"},
      {"measurement": "MIC", "setting": "Staphylococcus aureus [1]; beta-lactamase negative, strain SSC 79-7, Table II", "value": 0.12, "unit": "µg/mL"},
      {"measurement": "MIC", "setting": "Staphylococcus aureus [1]; beta-lactamase negative, strain SSC 79-9, Table II", "value": 0.12, "unit": "µg/mL"},
      {"measurement": "MIC", "setting": "Staphylococcus aureus [1]; beta-lactamase negative, strain SSC 79-10, Table II", "value": 0.12, "unit": "µg/mL"},
      {"measurement": "MIC", "setting": "Staphylococcus aureus [1]; beta-lactamase negative, strain SSC 79-11, Table II", "value": 0.12, "unit": "µg/mL"},
      {"measurement": "MIC", "setting": "Staphylococcus aureus [1]; beta-lactamase negative, strain SSC 79-14, Table II", "value": 0.5, "unit": "µg/mL"},
      {"measurement": "MIC", "setting": "Staphylococcus aureus [1]; beta-lactamase negative, strain SSC 79-15, Table II", "value": 0.5, "unit": "µg/mL"},
      {"measurement": "MIC", "setting": "Staphylococcus aureus [1]; beta-lactamase negative, strain SSC 79-17, Table II", "value": 0.25, "unit": "µg/mL"},
      {"measurement": "MIC", "setting": "Staphylococcus aureus [1]; beta-lactamase positive, strain SSC 79-24, Table II", "value": 4, "unit": "µg/mL"},
      {"measurement": "MIC", "setting": "Staphylococcus aureus [1]; beta-lactamase positive, strain SSC 79-27, Table II", "value": 0.25, "unit": "µg/mL"},
      {"measurement": "MIC", "setting": "Staphylococcus aureus [1]; beta-lactamase positive, strain SSC 79-28, Table II", "value": 0.25, "unit": "µg/mL"},
      {"measurement": "MIC", "setting": "Staphylococcus aureus [1]; beta-lactamase positive, strain SSC 79-36, Table II", "value": 0.25, "unit": "µg/mL"},
      {"measurement": "MIC", "setting": "Staphylococcus aureus [1]; beta-lactamase positive, strain SSC 79-38, Table II", "value": 0.25, "unit": "µg/mL"},
      {"measurement": "MIC", "setting": "Staphylococcus aureus [1]; beta-lactamase positive, strain SSC 79-39, Table II", "value": 0.25, "unit": "µg/mL"},
      {"measurement": "MIC", "setting": "Staphylococcus aureus [1]; beta-lactamase positive, strain SSC 79-41, Table II", "value": 0.5, "unit": "µg/mL"},
      {"measurement": "MIC", "setting": "Staphylococcus aureus [1]; beta-lactamase positive, strain SSC 79-44, Table II", "value": 0.12, "unit": "µg/mL"},
      {"measurement": "MIC", "setting": "Staphylococcus aureus [1]; beta-lactamase positive, strain SSC 79-47, Table II", "value": 0.25, "unit": "µg/mL"},
      {"measurement": "MIC", "setting": "Staphylococcus aureus [1]; strain FU-79-19-2, Table I", "value": 0.5, "unit": "µg/mL"},
      {"measurement": "MIC", "setting": "Staphylococcus aureus [1]; strain SSC-79-18, Table I", "value": 0.25, "unit": "µg/mL"},
      {"measurement": "MIC", "setting": "Staphylococcus aureus [1]; strain SSC-80-15, Table I", "value": 0.5, "unit": "µg/mL"},
      {"measurement": "MIC", "setting": "Staphylococcus aureus [1]; strain Smith, Table I", "value": 0.25, "unit": "µg/mL"},
      {"measurement": "MIC", "setting": "Escherichia coli [2]; strain #311, Table I", "value": 0.03, "unit": "µg/mL"},
      {"measurement": "MIC", "setting": "Escherichia coli [2]; strain K-81-14, Table I", "value": 0.06, "unit": "µg/mL"},
      {"measurement": "MIC", "setting": "Escherichia coli [2]; strain STFD-79-20, Table I", "value": 0.015, "unit": "µg/mL"},
      {"measurement": "MIC", "setting": "Klebsiella pneumoniae; Klebsiella pneumoniae, strain STFD-79-16, read-out: Minimal Inhibitory Concentration", "value": 0.015, "unit": "µg/mL"},
      {"measurement": "Minimal Inhibitory Concentration", "setting": "Klebsiella pneumoniae; strain SSC-78-1", "value": ".015 µg/mL"},
      {"measurement": "MIC", "setting": "Serratia marcescens; strain K-81-39, Table I", "value": 0.12, "unit": "µg/mL"},
      {"measurement": "MIC", "setting": "Serratia marcescens; strain QHC-77-2, Table I", "value": 1, "unit": "µg/mL"},
      {"measurement": "MIC", "setting": "Serratia marcescens; strain TUL-78-15, Table I", "value": 1, "unit": "µg/mL"},
      {"measurement": "MIC", "setting": "Enterococcus sp.; Enterococcus, strain OSU-75-1, read-out: Minimal Inhibitory Concentration", "value": 32, "unit": "µg/mL"},
      {"measurement": "Minimal Inhibitory Concentration", "setting": "Enterococcus sp.; strain SM-77-15", "value": 32, "unit": "µg/mL"},
      {"measurement": "MIC", "setting": "Proteus morganii; strain K-77-3", "value": 4, "unit": "µg/mL"},
      {"measurement": "MIC", "setting": "Proteus morganii; strain K-79-25", "value": 0.015, "unit": "µg/mL"},
      {"measurement": "MIC", "setting": "Enterobacter cloacae; strain K-79-16, Table I", "value": 0.25, "unit": "µg/mL"},
      {"measurement": "MIC", "setting": "Enterobacter cloacae; strain K-81-46, Table I", "value": 0.12, "unit": "µg/mL"},
      {"measurement": "MIC", "setting": "Klebsiella oxytoca", "value": 0.03, "unit": "µg/mL"},
      {"measurement": "MIC", "setting": "Proteus rettgeri", "value": 0.015, "unit": "µg/mL"},
      {"measurement": "MIC", "setting": "Salmonella (arizona)", "value": 0.03, "unit": "µg/mL"},
      {"measurement": "MIC", "setting": "Providencia stuartti", "value": 0.06, "unit": "µg/mL"},
      {"measurement": "MIC", "setting": "Salmonella sp.", "value": 0.25, "unit": "µg/mL"},
      {"measurement": "MIC", "setting": "Pseudomonas aeruginosa; strain 12-4-4, Table I", "value": 32, "unit": "µg/mL"},
      {"measurement": "MIC", "setting": "Pseudomonas aeruginosa; strain SSC-78-13, Table I", "value": 64, "unit": "µg/mL"},
      {"measurement": "MIC", "setting": "Pseudomonas aeruginosa; strain TUL-78-2, Table I", "value": 128, "unit": "µg/mL"},
      {"measurement": "MIC", "setting": "Acinetobacter sp.; strain K-77-1, Table I", "value": 4, "unit": "µg/mL"},
      {"measurement": "MIC", "setting": "Acinetobacter sp.; strain K-77-6, Table I", "value": 16, "unit": "µg/mL"},
      {"measurement": "MIC", "setting": "Acinetobacter sp.; strain STFD-79-17, Table I", "value": 16, "unit": "µg/mL"},
      {"measurement": "MIC", "setting": "Citrobacter sp.", "value": 0.03, "unit": "µg/mL"},
      {"measurement": "ED50", "setting": "Escherichia coli [3]", "value": 0.35, "unit": "mg/kg"},
      {"measurement": "ED50", "setting": "Staphylococcus aureus [4]; strain Fu-79-2, subcutaneous 30 min after i.p. infection, 95% confidence limits (4.4-8.4)", "value": 6.1, "unit": "mg/kg"},
      {"measurement": "ED50", "setting": "Staphylococcus aureus [4]; strain Smith, subcutaneous 30 min after i.p. infection, 95% confidence limits (2.4-3.6)", "value": 2.9, "unit": "mg/kg"},
      {"measurement": "ED50", "setting": "Staphylococcus pyogenes", "value": 0.1, "unit": "mg/kg"}
    ]}
  ]
}
